Measured values reported in US8574831B2, “Mutational profiles in HIV-1 reverse transcriptase correlated with phenotypic drug resistance” (Virco N.V., priority 2000, dated 2013).

Test system: HIV with mutations in the HIV protease sequence
Test: Phenotypic fold resistance to protease inhibitors, protease mutations 84A/84L/84C/54M/54L/54V in a background (Examples 8-13)
Type: cell-based, HIV-1
Summary of the method: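 Recombinant-virus phenotyping: patient-derived PR/RT sequences amplified by PCR and recombined in CD4+ T cells into an HXB2 proviral clone deleted for those sequences. Chimeric viruses grown across drug concentrations; IC50 determined, and fold-resistance expressed as IC50 ratio versus wild-type susceptible laboratory HIV-1 tested in parallel.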

CC(C)(C)NC(=O)[C@@H]1CN(Cc2cccnc2)CCN1C[C@@H](O)C[C@@H](Cc1ccccc1)C(=O)N[C@H]1c2ccccc2C[C@H]1O [Indinavir, indinavir]
mean fold increase in resistance (Table 9 #1, protease genotype WT): 0.9 fold | mean fold increase in resistance (Table 9 #2, protease genotype 10I): 0.7 fold | mean fold increase in resistance (Table 9 #3, protease genotype 46I): 0.6 fold | mean fold increase in resistance (Table 9 #4, protease genotype 46I + 84V): 2.6 fold | mean fold increase in resistance (Table 9 #5, protease genotype 46I + 84A): 26.8 fold | mean fold increase in resistance (Table 9 #6, protease genotype 10I + 46I): 2.9 fold | mean fold increase in resistance (Table 9 #7, protease genotype 10I + 46I + 84V): 2.4 fold | mean fold increase in resistance (Table 9 #8, protease genotype 10I + 46I + 84A): 33.4 fold | mean fold increase in resistance (Table 9 #9, protease genotype 10L/I + 46I + 84A): 44.5 fold | mean fold increase in resistance (Table 9 #10, protease genotype 10I + 46I + 84A): 26 fold | mean fold increase in resistance (Table 9 #11, protease genotype 46I + 71V): 3.7 fold | mean fold increase in resistance (Table 9 #12, protease genotype 46I + 71V + 84V/I): 3.1 fold | mean fold increase in resistance (Table 9 #13, protease genotype 46I + 71V + 84A): 56.5 fold | mean fold increase in resistance (Table 9 #14, protease genotype 10F + 46I + 71V): 22.2 fold | mean fold increase in resistance (Table 9 #15, protease genotype 10I + 46I + 71V + 84V): 50.5 fold | mean fold increase in resistance (Table 9 #16, protease genotype 10I + 46I + 71V + 84A): 45.9 fold | mean fold increase in resistance (Table 9 #17, protease genotype 10V + 46I + 71T + 84A): 57.9 fold | mean fold increase in resistance (Table 9 #18, protease genotype 10I + 46I + 71V + 77I): 2.2 fold | mean fold increase in resistance (Table 9 #19, protease genotype 10I + 46I + 71V + 77I + 84V): 2.2 fold | mean fold increase in resistance (Table 9 #20, protease genotype 10I + 46I + 71V + 77I + 84A): 57.9 fold | mean fold increase in resistance (Table 9 #21, protease genotype 10I + 33L/I + 46I + 71V + 77V/I + 84A): 31.4 fold | mean fold increase in resistance (Table 10 #1, protease genotype 10I + 36I + 71V): 1.4 fold | mean fold increase in resistance (Table 10 #2, protease genotype 10I + 36I + 71I + 84V): 1.0 fold | mean fold increase in resistance (Table 10 #3, protease genotype 10I + 36I + 71I + 84L): 3.7 fold | mean fold increase in resistance (Table 11 #1, protease genotype WT): 0.9 fold | mean fold increase in resistance (Table 11 #2, protease genotype 84V): 0.7 fold | mean fold increase in resistance (Table 11 #3, protease genotype 84C): 2.7 fold | mean fold increase in resistance (Table 11 #4, protease genotype 10I): 0.7 fold | mean fold increase in resistance (Table 11 #5, protease genotype 10I + 84V): 1.8 fold | mean fold increase in resistance (Table 11 #6, protease genotype 10I + 84C): 4.3 fold | mean fold increase in resistance (Table 11 #7, protease genotype 77I): 0.4 fold | mean fold increase in resistance (Table 11 #8, protease genotype 77I + 84V): 2.5 fold | mean fold increase in resistance (Table 11 #9, protease genotype 77I + 84C): 3.1 fold | mean fold increase in resistance (Table 11 #10, protease genotype 77I + 84C): 3.2 fold | mean fold increase in resistance (Table 11 #11, protease genotype 10I + 24I + 36I + 46I + 71V + 84C): 7.5 fold | Fold change in IC50 (Table 12, V19263, genotype 77I): 0.4 fold | Fold change in IC50 (Table 12, V20160, genotype WT): 0.9 fold | Fold change in IC50 (Table 12, V021667, genotype 10I): 0.7 fold | Fold change in IC50 (Table 12, V030496, genotype 10I + 77I): 0.4 fold | Fold change in IC50 (Table 12, V048869, genotype 10I + 54M + 77I + 90M): 7.1 fold | Fold change in IC50 (Table 12, V048872, genotype 33F + 54M + 77I + 90M): 3.2 fold | Fold change in IC50 (Table 12, V048873, genotype 33F + 54M + 77I + 90M): 1.7 fold | Fold change in IC50 (Table 12, V048877, genotype 10I + 33F + 77I + 90M): 2.9 fold | Fold change in IC50 (Table 12, V048878, genotype 10I + 33F + 54M + 71V + 77I + 90M): 5.2 fold | Fold change in IC50 (Table 12, V048879, genotype 10I + 33F + 54M + 71V + 77I + 90M): 6.5 fold | Fold change in IC50 (Table 12, V048880, genotype 10I + 33F + 77I + 90M): 1.3 fold | Fold change in IC50 (Table 12, V052940, genotype 71V): 0.7 fold | Fold change in IC50 (Table 12, V052942, genotype 10I + 71V): 0.6 fold | Fold change in IC50 (Table 12, V052943, genotype 10I + 90M): 0.5 fold | Fold change in IC50 (Table 12, V052944, genotype 10I + 90M): 0.5 fold | Fold change in IC50 (Table 12, V052945, genotype 77I + 90M): 0.6 fold | Fold change in IC50 (Table 12, V052946, genotype 71V + 90M): 0.9 fold | Fold change in IC50 (Table 12, V052947, genotype 10I + 77I + 90M): 2.9 fold | Fold change in IC50 (Table 12, V052948, genotype 10I + 71V + 90M): 8.6 fold | Fold change in IC50 (Table 12, V052949, genotype 10I + 71V + 77I + 90M): 2.7 fold | Fold change in IC50 (Table 12, V052950, genotype 33F): 0.6 fold | Fold change in IC50 (Table 12, V052951, genotype 33F + 77I): 0.4 fold | Fold change in IC50 (Table 12, V052953, genotype 10I + 33F + 77I): 0.8 fold | Fold change in IC50 (Table 12, V052954, genotype 33F + 77I + 90M): 1.7 fold | Fold change in IC50 (Table 12, V052955, genotype 33F + 71V + 90M): 5.3 fold | Fold change in IC50 (Table 12, V052977, genotype 10I + 33F + 54M): 1.8 fold | Fold change in IC50 (Table 12, V052978, genotype 10I + 33F + 54M + 71V + 90M): 5.4 fold | Fold change in IC50 (Table 12, V052979, genotype 10I + 54M): 1.8 fold | Fold change in IC50 (Table 12, V052980, genotype 10I + 54M + 90M): 1.3 fold | Fold change in IC50 (Table 12, V052981, genotype 10I + 54M + 71V + 90M): 3.2 fold | Fold change in IC50 (Table 12, V052982, genotype 10I + 54M + 71V + 77I + 90M): 2.4 fold | Fold change in IC50 (Table 12, V053832, genotype 10I + 33F): 0.4 fold
